According to patent US20050222266A1, “2-indanylamino derivatives for the therapy of chronic pain” (priority 2002, published 2005):
Structures can show the parent of a compound that is named as a salt.

How the values were obtained:
[1] = test system: thermal hyperalgesia produced by CCI; test: Chronic Constriction Injury (CCI) model, thermal hyperalgesia (plantar test); type: in vivo; conditions: rat CCI
Protocol: (§1) The potential analgesic activity of CHF 3381 was evaluated the Chronic Constriction Injury (CCI) model described by Bennett et al (Pain 1988, 33: 87-107). Briefly, the rat left common sciatic nerve was exposed, and proximal to the sciatic trifurcation about 10 mm of nerve was freed of adhering tissue and four ligatures (4.0 silk ) were loosely tied around it with about 1 mm of spacing.
(§2) Two tests of hind limb withdrawal to thermal and cold stimuli were employed in this study. Each test was repeated on both the operated hind paw and the controlateral hind paw.
Rats were tested for thermal hyperalgesia using a commercial available analgesimeter (Plantar test, Ugo Basile, Comerio Italy) by applying heat stimulus (50 W, 8V) directed onto the plantar surface of each hind paw, and the paw withdrawal latency (s) was determined. Four latency measurements were taken for each hind paw and averaged. The apparatus was calibrated to give a paw withdrawal latency of approximately 10 sec. The results were expressed as the difference score (DS) by subtracting the latency of the control side from the latency of the ligated side; if this difference was less than 1.5 sec, the animal was not included in the experimental groups. CHF 3381 (10-30-60 mg/kg intraperitoneally -i.p.-) or vehicle were administered to animals 14-21 days after ligation and hyperalgesia tested 1, 2 and 4 hours after treatment. CHF3381 reversed the thermal hyperalgesia produced by CCI in a dose- and time-dependent manner with a maximum effect at 60 min after the administration.

[2] = test system: cold allodynia produced by CCI; test: Chronic Constriction Injury (CCI) model, cold allodynia; type: in vivo, rat
Protocol: as §1, §2
Cold allodynia was assessed in operated rats, confining them into a clear plastic cylinders placed upon a metal floor chilled by an underlying water bath. A thermistor placed on the floor indicated a surface temperature of about 5° C. In this experimental condition, after the ligation operated rats respond by lifting the affected hind paw elevated above the floor. […] A maximum cut-off time of 20 sec was set to avoid any possible interference with the sensitivity of the animal to respond to subsequent exposure to the cold stimulus. Animals were pre-screened twice with 20 min interval between tests, in order to select for animals displaying clear signs of cold allodynia, i.e. animals with a paw withdrawal latency on the ligated side of <13 sec in both trials.
The animals were then assigned to groups consisting of at least 10 animals per group. CHF 3381 (10-30-60 mg/kg i.p.) or vehicle were administered to animals 7-14 days after ligation and cold allodynia tested 1 and 2 hours after treatment. CHF 3381 also reversed cold allodynia produced by CCI. This effect was again observed to be both time- and dose-dependent with the results generally concurring with those from the thermal hyperalgesia studies. The effect was maximum at 60-120 min after the administration and significant at the two higher tested doses (Table 1).

[3] = test system: formalin-induced licking and flinching; test: mice paw formalin test, acute treatment; type: in vivo; conditions: for Late phase licking/flinching time: 10 to 40 min; for Early phase licking/flinching time: first 5 min
Protocol: The mice paw formalin test was performed as described by Wheeler-Aceto et al. (Psychopharmacology 104:35-44, 1991). Briefly, the day before the formalin injection, mice were placed individually into clear plastic cylinders for 30 minutes of adaptation. The day of testing 20 μl of 1% formalin was injected into the plantar surface of the left hind paw and the animals were again placed into the plastic cylinder for the behavioural observation. The amount of time, in seconds, the animals spent licking and flinching (L/F) the injected paw for the first 5 min (early phase), and then from 10 to 40 min(late phase) after formalin injection, was used as measurement of intensity of pain. CHF 3381 10-100 mg/kg i.p. and 25-200 mg/kg p.o. or the corresponding vehicles, were administered 15 and 30 min before formalin injection, respectively.

[4] = test system: acute pain, hot plate 51° C.; test: hot-plate test, rats; type: in vivo; conditions: 15 min
Protocol: The effect of CHF 3381 was studied in acute pain with hot-plate test described by Eddy et al (1953). The test was performed on an electrically heated and thermostatically controlled copper surface, set to a temperature of 55 or 51° C. with mice and rats, respectively.
The animals were confined to the hot plate by a transparent observation chamber and the latency to the response consisting of licking of the hind paws, was measured. A cut-off period of 60 sec was used to avoid tissue damage.
After i.p. administration, CHF 3381 (30-45-60 and 100 mg/kg in mouse; 30-37-45 and 60 mg/kg in rats), produced a significant and dose-dependent increase in the latency of the hindpaw licking response compared to vehicle-treated animals (Table 6).

rotarod test, mice = conditions: mouse, in vivo, 15 min before test
Protocol: The side-effect profile of CHF 3381 was then evaluated in the rotarod test both in mice and rats. The day before the execution of the test, mice and rats were trained to maintain their equilibrium on the test apparatus. For mice, training consisted of 3 subsequent 2 min attempts on a rod rotating from 4.5 r.p.m. to 16.5 r.p.m.; for rats, of 3 subsequent 1 min attempts at 8 rpm (Kinnard and Carr, 1957). The morning of the test day, mice and rats were again tested on the rotarod and only animals able to maintain their equilibrium on the rod were retained for the experimental procedure. CHF 3381 was administered p.o. or i.p. to groups of at least 8 animals 15 min (time of peak effect for neurotoxicity) before the execution of the test. All controls received the corresponding vehicle. The number of mice falling during a 2-min test period and the number of rats falling for 3 subsequent 1-min attempts were used for the calculation of the respective doses at which 50% of the animals display neurotoxicity (TD50).

seizure models = conditions: in vivo; cited from earlier work
rat MES model = conditions: cited from earlier work

## NC(=O)CNC1Cc2ccccc2C1 [CHF 3381, N-2(indanyl)-glicinamide hydrochloride]
[1]; 10 mg/kg i.p.
  Hyperalgesia Difference score (DS): 1.41 ± 0.36 s
[1]; 30 mg/kg i.p.
  Hyperalgesia Difference score (DS): 0.83 ± 0.35 s
[1]; 60 mg/kg i.p.
  Hyperalgesia Difference score (DS): 0.68 ± 0.14 s
[2]; 10 mg/kg i.p., 60 min
  Allodynia paw withdrawal latency: 7.75 ± 1.36 s
[2]; 10 mg/kg i.p., 120 min
  Allodynia paw withdrawal latency: 8.71 ± 1.88 s
[2]; 30 mg/kg i.p., 60 min
  Allodynia paw withdrawal latency: 9.96 ± 1.70 s
[2]; 30 mg/kg i.p., 120 min
  Allodynia paw withdrawal latency: 9.89 ± 1.70 s
[2]; 60 mg/kg i.p., 60 min
  Allodynia paw withdrawal latency: 11.2 ± 1.33 s
[2]; 60 mg/kg i.p., 120 min
  Allodynia paw withdrawal latency: 12.68 ± 1.63 s
[3]; 10 mg/kg i.p.
  Late phase licking/flinching time: 165 ± 26 s
  Early phase licking/flinching time: 95 ± 8 s
[3]; 25 mg/kg p.o.
  Late phase licking/flinching time: 92 ± 25 s
  Early phase licking/flinching time: 99 ± 8 s
[3]; 30 mg/kg i.p.
  Late phase licking/flinching time: 58 ± 1 s
  Early phase licking/flinching time: 59 ± 9 s
[3]; 50 mg/kg p.o.
  Late phase licking/flinching time: 30 ± 9 s
  Early phase licking/flinching time: 72 ± 7 s
[3]; 60 mg/kg i.p.
  Late phase licking/flinching time: 17 ± 5 s
  Early phase licking/flinching time: 32 ± 7 s
[3]; 100 mg/kg i.p.
  Late phase licking/flinching time: 2 ± 2 s
  Early phase licking/flinching time: 17 ± 4 s
[3]; 100 mg/kg p.o.
  Late phase licking/flinching time: 23 ± 16 s
  Early phase licking/flinching time: 46 ± 7 s
[3]; 200 mg/kg p.o.
  Late phase licking/flinching time: 12 ± 10 s
  Early phase licking/flinching time: 47 ± 4 s
[3]; mice, 100 mg/kg p.o. and 60 mg/kg i.p.
  acute and tonic formalin-induced licking response: almost completely blocked
[4]; 30 mg/kg i.p.
  latency of the hindpaw licking response: 22.44 ± 2.07 s
[4]; 37 mg/kg i.p.
  latency of the hindpaw licking response: 26.24 ± 2.22 s
[4]; 45 mg/kg i.p.
  latency of the hindpaw licking response: 39.59 ± 3.56 s
[4]; 60 mg/kg i.p.
  latency of the hindpaw licking response: 42.80 ± 3.27 s
Rotarod test, mice; ip, i.p. administration
  TD50 at 15 min: 96 mg/kg
Rotarod test, mice; oral administration
  TD50 at 15 min: 233 mg/kg
Seizure models
  antagonism of 4-aminopyridine- and bicuculline-induced tonic seizures: weaker antagonist
  behavioral effects and lethality of systematically administered NMDA: antagonize
  effect against maximal electroshock seizures, picrotoxin- and NMDA-induced hind limb tonic extension: very effective
  effect against pentylentetrazole- and picrotoxin-induced clonic seizures: ineffective
Rat MES model
  anti-convulsivant activity: anti-convulsivant activity
